Columns and labels:
Mus musculus = species: Mus musculus; test: In vitro inhibition of LTC4 biosynthesis in plasma protein-free cultures of zymosan-stimulated mouse macrophages; type: functional
Homo sapiens = species: Homo sapiens; test: In vitro inhibition of LTB4 biosynthesis in A-23187-stimulated human whole blood; type: functional

IC50 (Mus musculus) [µM]	IC50 (Homo sapiens) [µM]	SMILES
0.0004	–	CO[C@]1(c2cc(F)cc(OCc3ccc4c(ccc(=O)n4C)c3)c2)CCO[C@@H](C)C1
0.009	0.67	CO[C@@]1(c2cc(F)cc(OCc3ccc4c(ccc(=O)n4C)c3)c2)CCO[C@H](C)C1
0.008	0.14	CO[C@]1(c2cc(F)cc(OCc3ccc4c(ccc(=O)n4C)c3)c2)CCO[C@H](C)C1
0.06	1.76	CO[C@@]1(c2cc(F)cc(OCc3ccc4c(ccc(=O)n4C)c3)c2)CCO[C@@H](C)C1

— ChEMBL document CHEMBL1126825, “4-Methoxy-2-methyltetrahydropyrans: chiral leukotriene biosynthesis inhibitors, related to ICI D2138, which display enantioselectivity” (J Med Chem, 1993)
